Results on 28 compounds are retold here after ChEMBL document CHEMBL1777699, “Part 2: Design, synthesis and evaluation of hydroxyproline-derived α2δ ligands” (Bioorg Med Chem Lett, 2011).

Series [1] is described as follows: Plasma protein binding in human. It counts as ADME, cell-free. Conditions: read-out: PPB (converted).
A short description of series [2]: Displacement of [3H]gabapentin from voltage gated calcium channel alpha2delta from pig cerebral cortex by scintillation counting. It counts as tissue-based, Sus scrofa. (In general: Displacement assays read how much labelled ligand stays bound in the presence of the test substance.)
The species entered for the next series is Rattus norvegicus. Nature of the series: Unbound clearance in rat. In kind it is ADME, organism-based. Conditions: in vivo.
A short description of series [3]: Lipophilicity, log D of the compound. In kind it is physicochemical. The settings on record: octanol/water.
A short description of series [4]: Half life in rat. In kind it is ADME, organism-based. The settings on record: in vivo.
Series [5] can be described thus: Tmax in human. In kind it is ADME. The settings on record: plasma.
A short description of series [6]: Half life in dog. In kind it is ADME, organism-based, Canis lupus familiaris. The settings on record: in vivo.
A short description of series [7]: Half life in human. The settings on record: plasma. In kind it is ADME, cell-free.
The species entered for a further series is Canis familiaris. Nature of the series: Unbound clearance in dog. Conditions: in vivo. In kind it is ADME, organism-based, Canis lupus familiaris.
A further series concerns Plasma. Nature of the series: Cmax in human. It counts as ADME, organism-based. The settings on record: in vivo.
A short description of series [8]: Drug level in rat urine after 24 hrs. In kind it is ADME. The settings on record: read-out: Drug uptake.

What is called IC50 is the midpoint of a concentration-inhibition curve. What is called logD is the decadic logarithm of the distribution of all forms, ionised or not, between an organic phase and buffer at a given pH. A low value points to lower lipophilicity. The term half-life denotes the time in which the quantity being followed falls by half. A high value points to slow loss. In general, Tmax refers to the time from dosing to the highest level. Broadly, the Cmax is the highest concentration seen after dosing.

For the compound `O=C(O)[C@@H]1C[C@H](OCc2ccc(Cl)cc2)CN1`, the fraction unbound in series [1] was 0.17. Also, the IC50 in series [2] was 48 nM. In the series filed under Rattus norvegicus, this compound gave a CL free of 26 mL/min/kg. This compound also gave a log distribution coefficient (logD) in [3] of -0.2. This compound also showed a half-life in series [4] of 24 min.

As to `C[C@@H](CNCC(=O)O)Oc1ccc(Cl)cc1`, the IC50 in [2] was 523 nM.

In the case of `O=C(O)CNCCSc1ccc(Cl)cc1`, the IC50 in series [2] was found to be 195 nM.

Take `O=C(O)CNCCOc1ccc(Cl)cc1`: the IC50 in [2] is above 8000 nM.

`O=C(O)[C@@H]1C[C@H](Sc2ccc(Cl)cc2)CN1`: the IC50 in series [2] came to 72 nM.

For the compound `O=C(O)[C@@H]1C[C@H](Oc2ccc(Cl)cc2)CN1`, the IC50 in series [2] is 32 nM.

`O=C(O)[C@H]1C[C@@H](Oc2ccc(Cl)cc2)CN1`: the IC50 in series [2] is above 10000 nM.

As to `Cl.O=C(O)[C@@H]1C[C@H](Oc2cccc(Cl)c2)CN1`, in series [5], the Tmax is 30 min. For the same compound, the half-life in series [6] is 90 min; in series [7] it was 138 min; in series [4], 24 min. Besides, the fraction unbound in [1] is 0.07. In addition, the CL free was determined as 49 mL/min/kg in the series filed under Canis familiaris and 41 mL/min/kg in the series filed under Rattus norvegicus. Moreover, the IC50 in [2] was 4 nM. The compound further registered a Cmax in the series with Plasma of 2400 nM. In addition, the logD in [3] was -0.1.

With `O=C(O)[C@@H]1C[C@H](Oc2ccccc2)CN1`, the IC50 in [2] amounted to 102 nM.

On to `O=C(O)[C@@H]1C[C@H](Oc2ccc(Cl)cn2)CN1`, for which, in series [2], the IC50 came to 399 nM.

For the compound `O=C(O)[C@@H]1C[C@H](Oc2ccc3c(c2)OCC3)CN1`, in [1], the fraction unbound was 0.11. In [2], the IC50 was 11 nM. The compound also gave a CL free in the series filed under Rattus norvegicus of 111 mL/min/kg. For the same compound, in [3], the logD is -0.1. In series [4], this compound gave a half-life of 60 min.

As to `O=C(O)[C@@H]1C[C@H](Oc2ccc3ccccc3c2)CN1`, the IC50 in series [2] stood at 30 nM.

`O=C(O)[C@@H]1C[C@H](Oc2ccc(OC(F)(F)F)cc2)CN1`: the IC50 in series [2] was 1680 nM.

As for `O=C(O)[C@@H]1C[C@H](Oc2cccc(F)c2)CN1`, the IC50 in series [2] was 17 nM.

Regarding `O=C(O)[C@@H]1C[C@H](Oc2ccccc2Cl)CN1`, the IC50 in series [2] amounted to 52 nM.

As to `CCC(C)O[C@@H]1CN[C@H](C(=O)O)C1` (stereo partly drawn), in series [2], the IC50 is 269 nM.

As for `N#Cc1ccccc1O[C@@H]1CN[C@H](C(=O)O)C1`, the 50% inhibitory concentration (IC50) in series [2] is above 10000 nM.

With `O=C(O)[C@@H]1C[C@H](Oc2cccc(O)c2)CN1`, the IC50 in [2] amounted to 94 nM.

In the case of `O=C(O)[C@@H]1C[C@H](Oc2ccc(Cl)c(F)c2)CN1`, the fraction unbound in series [1] is 0.05. Besides, the IC50 in [2] is 26 nM. This compound also yielded a CL free in the series filed under Rattus norvegicus of 108 mL/min/kg. For the same compound, in series [3], the logD came out at 0.1. Also, the half-life in series [4] was 90 min.

In the case of `O=C(O)[C@@H]1C[C@H](OCc2cccc(Cl)c2)CN1`, in series [2], the IC50 turned out to be 14 nM.

Regarding `O=C(O)[C@@H]1C[C@H](Sc2cccc(Cl)c2)CN1`, in series [1], the fraction unbound is 0.16. In series [2], the IC50 stood at 7 nM. In addition, the CL free in the series listed under Rattus norvegicus came to 56 mL/min/kg. Besides, the logD in series [3] amounted to 0.3. Further, the half-life in series [4] was 18 min.

For `CC(C)(C)OC(=O)[C@@H]1C[C@H](Oc2cccc(Cl)c2)CN1`, in series [2], the IC50 is 325 nM.

As to `CC(C)(C)OC(=O)N1C[C@@H](Oc2cccc(Cl)c2)C[C@H]1C(=O)O`, in series [2], the IC50 is above 1000 nM.

In the case of `CCCN1C[C@@H](Oc2cccc(Cl)c2)C[C@H]1C(=O)O`, the IC50 in [2] was above 1000 nM.

Turning to `COC(=O)[C@@H]1C[C@H](Oc2cccc(Cl)c2)CN1C(=O)OC(C)(C)C`, in series [8], the dose excreted at 24 h stood at 85%.

For `C[C@@]1(C(=O)O)C[C@H](Oc2cccc(Cl)c2)CN1` (stereo in doubt; 36), the IC50 in series [2] is 1260 nM.

As to `C[C@@]1(C(=O)O)C[C@H](Oc2cccc(Cl)c2)CN1` (stereo in doubt; 37), the IC50 in [2] was above 10000 nM.

Regarding `NCC1(CC(=O)O)CCCCC1` [GABAPENTIN], the IC50 in series [2] worked out at […].
